The values that follow come from ChEMBL document CHEMBL3526078, “Pharmacokinetics and hepatic uptake of eltrombopag, a novel platelet-increasing agent” (Drug Metab Dispos, 2011).

≈ marks a conversion by molar mass, not a printed value. Bounds are passed on as bounds.

Data set [1] in a line: Drug excretion in Sprague-Dawley rat urine assessed as unchanged compound level at 1 mg/kg, iv for 72 hrs. It is filed as ADME, organism-based. Also on record: dose 1 mg/kg, route intravenous. The following applies: read-out: Drug excretion.
Data set [2] has as its system Hepatocyte. The data set can be described thus: Drug uptake in mouse hepatocytes in presence of rotenone ATP depletor. It counts as ADME, cell-based.
The subject of data set [3] is Hepatocyte. The data set can be described thus: Drug uptake in mouse hepatocytes in presence of taurocholate OATP inhibitor. It is filed as ADME, cell-based.
A short description of data set [4]: Volume of distribution at steady state in Sprague-Dawley rat at 1 mg/kg, iv. It counts as ADME, organism-based. Further details: dose 1 mg/kg, route intravenous; call rule not given here. Conditions: in vivo, read-out: Vdss.
In data set [5] the test system is Hepatocyte. The data set is described as follows: Drug uptake in mouse hepatocytes at 37 degC up to 5 mins. It is filed as ADME, cell-based.
Data set [6] is described as follows: Solubility of the compound. It is filed as physicochemical.
For data set [7], the system named is Kidney. The data set can be described thus: Drug uptake in mouse kidney at 1 mg/kg, iv in presence of 20 mg/kg OATP inhibitor rifampicin. It counts as ADME, organism-based. Conditions: in vivo.
In data set [8] the test system is Kidney. The data set can be described thus: Drug uptake in mouse kidney at 1 mg/kg, iv in presence of 30 umol/kg TPeA. It counts as ADME, organism-based. Also on record: dose 1 mg/kg, route intravenous. Conditions: in vivo.
Data set [9] deals with Hepatocyte. The data set is described as follows: Drug uptake in mouse hepatocytes at 4 degC. It counts as ADME, cell-based.
Data set [10] relates to Hepatocyte. The data set is described as follows: Drug uptake in mouse hepatocytes at pH 7.4. It counts as ADME, cell-based.
The nature of data set [11]: Maximum plasma concentration in mouse at 1 mg/kg, iv. It is filed as ADME, organism-based. Further details: dose 1 mg/kg, route intravenous.
Data set [12] in a line: Clearance in Sprague-Dawley rat urine at 1 mg/kg, iv. It is filed as ADME, organism-based. Also on record: dose 1 mg/kg, route intravenous.
The target of data set [13] is T1, Solute carrier organic anion transporter family member 1B1 (Homo sapiens, UniProt Q9Y6L6).
T1 sequence (Q9Y6L6 whole entry): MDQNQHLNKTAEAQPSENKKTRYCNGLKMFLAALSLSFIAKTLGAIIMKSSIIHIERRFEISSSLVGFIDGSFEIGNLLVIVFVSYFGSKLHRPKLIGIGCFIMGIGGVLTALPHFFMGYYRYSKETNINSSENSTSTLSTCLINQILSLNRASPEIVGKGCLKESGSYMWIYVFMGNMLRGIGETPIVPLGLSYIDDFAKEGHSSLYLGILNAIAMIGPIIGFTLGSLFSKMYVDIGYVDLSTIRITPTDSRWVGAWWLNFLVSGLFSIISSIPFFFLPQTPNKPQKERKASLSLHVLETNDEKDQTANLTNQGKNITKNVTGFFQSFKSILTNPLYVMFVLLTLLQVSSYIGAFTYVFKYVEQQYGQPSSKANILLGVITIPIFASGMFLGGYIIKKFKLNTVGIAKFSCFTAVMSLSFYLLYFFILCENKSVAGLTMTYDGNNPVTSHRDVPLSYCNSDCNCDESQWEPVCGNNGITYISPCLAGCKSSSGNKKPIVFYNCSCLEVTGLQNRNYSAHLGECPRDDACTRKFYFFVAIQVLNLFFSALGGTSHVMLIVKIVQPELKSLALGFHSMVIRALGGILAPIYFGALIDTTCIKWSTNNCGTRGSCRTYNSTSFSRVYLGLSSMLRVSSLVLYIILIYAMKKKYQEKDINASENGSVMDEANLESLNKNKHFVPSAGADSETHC
The data set can be described thus: Inhibition of OATP1B1-mediated [3H]estrone-3-sulfate uptake in human OATP1B1 expressing HEK293/PDZK1 cells by scintillation counting. It is filed as ADME, cell-based.

Data set [14] can be described thus: Drug metabolism in human feces assessed as oxidized metabolites at 50 mg, po single dose. Conditions: in vivo. It counts as ADME, organism-based.
For data set [15], the target named is T2, Solute carrier family 22 member 1 (Homo sapiens, UniProt O15245).
T2 sequence (O15245 whole entry): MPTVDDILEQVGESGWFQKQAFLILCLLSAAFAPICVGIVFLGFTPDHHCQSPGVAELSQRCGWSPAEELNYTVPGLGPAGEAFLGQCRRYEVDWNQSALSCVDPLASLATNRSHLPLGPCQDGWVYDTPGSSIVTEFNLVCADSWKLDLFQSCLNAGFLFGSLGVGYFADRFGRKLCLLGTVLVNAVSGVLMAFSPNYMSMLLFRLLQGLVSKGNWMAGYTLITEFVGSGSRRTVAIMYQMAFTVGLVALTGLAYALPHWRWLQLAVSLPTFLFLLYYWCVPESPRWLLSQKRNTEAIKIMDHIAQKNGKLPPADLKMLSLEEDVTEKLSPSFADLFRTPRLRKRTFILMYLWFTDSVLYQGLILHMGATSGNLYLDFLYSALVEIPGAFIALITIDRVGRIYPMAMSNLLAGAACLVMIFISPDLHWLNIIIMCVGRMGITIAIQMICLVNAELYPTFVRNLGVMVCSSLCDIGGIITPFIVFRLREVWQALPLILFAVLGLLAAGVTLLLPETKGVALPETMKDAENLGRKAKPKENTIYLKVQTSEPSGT
The data set is described as follows: Inhibition of OCT1-mediated [14C]tetraethylammonium uptake in human OCT1 expressing HEK293/PDZK1 cells by scintillation counting. It counts as ADME, cell-based.

Data set [16] in a line: Distribution volume to the central compartment in Sprague-Dawley rat urine at 1 mg/kg, iv. It is filed as ADME, organism-based. Further details: dose 1 mg/kg, route intravenous. Conditions: read-out: Vc.
The nature of data set [17]: Total clearance in pdzk1(-/-) mouse at 1 mg/kg, iv. It is filed as ADME, organism-based. The following applies: in vivo. Also on record: dose 1 mg/kg, route intravenous.
Data set [18] in a line: Total clearance in bile duct cannulated Sprague-Dawley rat at 1 mg/kg, iv. It is filed as ADME, organism-based. Also on record: dose 1 mg/kg, route intravenous. Conditions: in vivo.
Data set [19] concerns Hepatocyte. The data set can be described thus: Drug uptake in mouse hepatocytes in absence of Cl-. It is filed as ADME, cell-based.

Turning to `CC1=NN(c2ccc(C)c(C)c2)C(=O)/C1=N\Nc1cccc(-c2cccc(C(=O)O)c2)c1O` [ELTROMBOPAG], the dose excreted at 72 h in data set [1] is less than 0.02%. In addition, the Drug uptake entry with Hepatocyte [2] is given as “Not Active”; in the data set with Hepatocyte [3] it was “Not Active”; with Hepatocyte [5], “Active”; with Kidney [7], “Active”; with Kidney [8], “Active”; with Hepatocyte [9], “Not Active”. Moreover, the Drug uptake result in the data set on Hepatocyte [10] and in the data set with Hepatocyte [19] was “Active” in each case. In addition, the Vd in [4] came to 0.287 L/kg; in data set [16], 0.0411 L/kg. Moreover, in data set [6], the concentration in solution (solubility) was 200 µM (≈ 88.5 µg/mL). Further, the highest level in data set [11] (Cmax) was 40 µM. In data set [12], the CL renal was less than 0.00117 mL/min/kg. Moreover, the Ki (in general, the dissociation constant of the complex between target and ligand, obtained from inhibition or displacement) in data set [13] was determined as 14.9 µM; in [15], 103 µM. In addition, the “inhibition (INH)” value is recorded as “Active” in data set [13] (human, hek293/pdzk1) and “Active” in data set [15] (human, hek293/pdzk1). Further, the Drug excretion in data set [14] is recorded as 59%. The clearance (as a rule, a measure of how efficiently the substance is removed, as volume per time) was 0.92 mL/min/kg in data set [17] and 0.572 mL/min/kg in data set [18].
